Series [1] deals with SOD1. Description: Immunofluorescence staining of SOD1 aggregation and misfolded SOD1. The format is cell-based, human. To be noted: Table 1; IF staining of SOD1. As to the method: Cells on coverslip were washed with PBS, fixed with 4% PFA at room temperature for 30 minutes, and then infiltrated with 0.1% Triton X-100/PBS for 10 minutes. The cells were treated with blocking solution (anti-Human Antibody 1:500 dilution in PBS) for 1 hour, and then cells were reacted with anti-pan SOD1 (1:400 dilution), misfolded SOD1 (B8H10; 1:200 dilution in blocking solution) at 4° C. overnight. Finally, the cells were reacted with FITC and rhodamine-conjugated secondary antibody at 4° C. for 6 hours. Nuclei were stained with 4,6-diamidino-2-phenylindole (DAPI), and endoplasmic reticula (ERs) were stained with ER-Tracker Red dye for 10 minutes. The cells were washed 3 times with PBS, and then coverslips were mounted with mounting solution [H-5501; Vector Laboratories (Burlingame, CA, USA)] and analyzed by fluorescence microscopy (Zeiss).
(§1) GFP-SOD1 (WT, G85R, G93A), non-tagged SOD1 (WT, A4V, G37R, G85R, G93A) and tdTomato-TDP43 expression vectors were purchased from Addgene (Cambridge, MA, USA). Transfection was performed using Jet-PEI reagent (JetPEI; Polyplus transfection, New York, NY, USA) according to the manufacturer's protocol. Briefly, vectors were mixed with JetPEI reagent in 150 mM NaCl buffer, and then mixture was reacted for 15 minutes. The mixture was added to cells in serum-free medium and reacted for 4 hours. After reaction, the cells were replaced with a culture medium supplemented with 10% FBS.

The next series has as its system SOD1^G93A-Tg mice. Description: In vivo drug treatment of ALS model mice (grip strength, behaviour, histology, survival). More on the design: species or system mouse. The note with it: for effects in ALS model mice: FIGS. 11A and 11B, summary statements; for In vivo: Table 1, ALS model mice. The procedure:
An experiment was performed in a facility approved by the Association for Laboratory Animal Care Assessment and Accreditation in accordance with the animal policy approved by Busan National University. B6SJL-Tg (SOD1^G93A) mice were purchased from Jackson Laboratory (Stock No: 002726). All mice were maintained under temperature and light-controlled conditions (20˜23° C., light-dark cycle 12 hr-12 hr) and were provided with sterile food and water.
Vehicle (DMSO) and SLC-B036 (10 mg/kg, 20 mg/kg) were administered to 12-week-old or 14-week-old SOD1^G93A mice via intraperitoneal injection twice weekly for 6 weeks. Control mice were treated under the same conditions. For histological analysis, mice were sacrificed at 18 weeks. After dissection of mice, spinal cord was fixed with 4% paraformaldehyde for 48 hours according to basic tissue processing procedures, and embedded in a paraffin block. An embedded tissue (cervical region of the spinal cord) was cut into 5 μm with a Leica microtome, and transferred to an adhesive-coated slide (Marienfeld laboratory glassware, Germany). After deparaffinization and rehydration, the slide was stained with hematoxylin and eosin to determine the number of spinal nerves.
For behavioral experiment, grip strength was checked every 2 weeks using a grip strength meter. The mice were allowed to grasp a tension bar with their forelimbs, and then their tails were slowly pulled until they released the bar. To observe motility, respiration, and quadriplegia of the mice, image analysis was performed at the end of administration (18-20 weeks).

Series [2] deals with WT-SOD1 and mutant SOD1-GST (A4V, G37R, G85R, G93A). Description: ELISA compound screening for binding inhibitor between WT-SOD1 and mutant SOD1. To be noted: Table 1; compounds at final concentration of 50 μM. Also noted: species or system human. The procedure:
For compound screening, the present inventors applied an ELISA assay system. To select a binding inhibitor between WT-SOD1 and mutant SOD1, the present inventors used 0.5% paraformaldehyde (PFA) to fix WT-SOD1 recombinant protein on a 96-well plate. The plate was dried, washed with phosphate-buffered saline (PBS), and reacted with the compounds at a final concentration of 50 μM, and then mutant SOD1-GST (A4V, G37R, G85R, G93A) proteins were added. After 2 hours of reaction, the 96-well plate was washed with PBS and blocked with 3% skim milk to prevent non specific reaction. The plate was reacted with anti-GST antibody (diluted at 1:10,000) for 1 hour, and then reacted with anti-mouse IgG-HRP (diluted at 1:50,000) for 1 hour. After washing twice, the plate was reacted with a 3,3′,5,5′-tetramethylbenzidine (TMB) solution (Calbiochem) for 30 minutes and a stop solution (1N H2SO4) for 30 minutes. Finally, the present inventors analyzed values using an ELISA reader (450 nm absorbance). Negative control (−; red line) was reacted without mutant SOD1, and positive control (+; blue line) was reacted with mutant SOD1 without the compounds.
To prepare recombinant proteins, human SOD1 (WT, A4V, G37R, G85R, G93A) was added to EcoRI and HindIII sites of pGEX-TEV vector, an improved vector made by adding a TEV protease cleavage site to pGEX-4T1 (Invitrogen). The recombinant proteins were expressed as GST-fusion proteins in Escherichia coli (E. coli) strain BL21 (DE3). The proteins were purified by glutathione-affinity chromatography.

A further series has as its system normal human fibroblasts. Description: Cell viability measurement (MTT), normal fibroblasts. The format is cell-based. The note with it: for cytotoxic effect in normal fibroblasts: MTT, FIG. 4E, FIG. 9B; for Toxicity (MTT): Table 1, cell type not given, neurons (FIG. 9A) and normal fibroblasts (FIG. 9B). As to the method: (§2) HEK293 cells were purchased from American Type Culture Collection (ATCC, Manassas, VA, USA) and maintained at 37° C. and 5% CO2 in DMEM liquid medium including 10% fetal bovine serum and 1% penicillin-streptomycin. SK—N—SH cells were purchased from Korean Cell Line Bank (KCLB, Seoul, South Korea) and maintained in MEM medium including 10% fetal bovine serum, 1% antibiotic, 25 mM HEPES, and 300 mg/L L-Glu. Human fibroblasts (person) were purchased from Coriell Cell Repositories (New Jersey, USA) and maintained in EMEM including 15% FBS, 2 mM Glutamine, and 26 mM HEPES without antibiotics. Thapsigargin (ER calcium scavenger: CAS 67526-95-8) was purchased from Calbiochem (Darmstadt, Germany). CoCl2 (hypoxia-inducer: C8661) was purchased from Sigma Aldrich (St, Louis, Mo, USA).
(§3) To check cells viability, the cells were reacted with 0.5 mg/ml MTT solution (475989; Merck, Darmstadt, Germany) at 37° C. for 4 hours. After removing residual solution and washing with PBS, precipitate was dissolved in 200 μl DMSO, and quantified by measuring absorbance at 540 nm.

For another series, the system named is neurons. Description: Cell viability measurement (MTT), neurons. Format: cell-based. The note with it: FIG. 9A. The procedure: as §2, §3
For series [3], the system named is SOD1. Description: Western blot / native gel analysis of SOD1 aggregation. The format is cell-based, human. To be noted: Table 1; effect on SOD1 aggregation, native / non-SDS-PAGE gel. The procedure:
Using RIPA buffer (50 mM Tris-Cl, pH 7.5, 150 mM NaCl, 1% NP-40, 0.1% SDS and […]) for SDS-PAGE and lysis buffer (50 mM Tris-Cl, pH 7.5, 150 mM NaCl, 0.3% NP-40) for Native-PAGE, proteins were extracted from cells. Samples were separated by the SDS-PAGE or the Native-PAGE and transferred to PVDF membrane. Blotted membrane was blocked with TBST buffer including 3% skim milk for 1 hour, and reacted with specific antibodies. The reacted antibodies were detected by ECL and X-ray film exposure. Antibodies used in the present disclosure are as follows: pan-SOD1 (GTX100554) was purchased from Genetex (California, USA). Misfolded SOD1-specific antibody (B8H10) was purchased from MediMabs (Montreal, Canada). Actin (sc-1616), GST (sc-138), and GFP (Green fluorescent protein; sc-8036) were purchased from Santa Cruz biotechnology (Santa Cruz, CA, USA). TDP-43 antibody (10782-2-AP) was purchased from Proteintech (Rosemont, IL, USA). Anti-FLAG (Sigma; F3165) was purchased from Sigma Aldrich (St, Louis, Mo, USA), and HRP-conjugated goat anti-mouse, goat anti-rabbit, and mouse anti-goat antibodies (Pierce, Thermo Fisher Scientific, Inc., Rockford, IL, USA) were used as secondary antibodies.
as §1
In general terms: Immunoblotting shows a protein as a band on a membrane.

Series [4] in a line: Pharmacokinetics (PK) analysis. Format: in vivo. To be noted: for PK study BA: Table 1.

Structures are written as SMILES. “Also recorded” adds a separate entry of the source.

This note sets out measurements from patent publication US12448393B2, “Use of novel compound, for preventing, improving or treating amyotrophic lateral sclerosis” (PRG S&TECH INC., priority 2019, dated 2025).

With `COc1cc(/C=C/CO[C@H]2Cc3cc4ccc(=O)oc4cc3OC2(C)C)ccc1[N+](=O)[O-]` [PRG-A-04, (S,E)-7-((3-(3-methoxy-4-nitrophenyl)allyl)oxy)-8,8-dimethyl-7,8-dihydro-2H,6H-pyrano[3,2-g]chromen-2-one], in the series with SOD1 [1], the Immuno-fluorscence result is given as “Effect ○”. Moreover, in the series with SOD1^G93A-Tg mice, the “effects in ALS model mice” value is on record as “Excellent effects; also recorded: good effects” and the In vivo result is reported as “Effect ○”. In series [2], the ELISA result is recorded as “Effect ○”. In the series with normal human fibroblasts, the “cytotoxic effect in normal fibroblasts” value is “did not exhibit cytotoxicity” and the “Toxicity (MTT)” value is given as “No”. In the series with neurons, the cytotoxicity in neurons entry is given as “did not exhibit cytotoxicity”. For the same compound, in the series with SOD1 [3], the “Western Blot” value is “Effect ○”. Also, in series [4] (FIG. 10), the PK profile entry is “appropriate PK profile”. Besides, in series [4], the “PK study BA” value is listed as 60.7%.
On to `CC1(C)Oc2cc3oc(=O)ccc3cc2C[C@@H]1OC(=O)/C=C/c1ccc(F)cc1` [PRG-A-03, (S)-8,8-dimethyl-2-oxo-7,8-dihydro-2H,6H-pyrano[3,2-g]chromen-7-yl (E)-3-(4-fluorophenyl) acrylate], for which the Immuno-fluorscence result with SOD1 [1] is reported as “Effect ○”. In addition, in the series with SOD1^G93A-Tg mice, the “effects in ALS model mice” value is reported as “good effects” and the In vivo result was “Effect ○”. Further, in series [2], the ELISA result is reported as “Effect ○”. Moreover, in the series with normal human fibroblasts, the “cytotoxic effect in normal fibroblasts” value is “did not exhibit cytotoxicity” and the “Toxicity (MTT)” value was “No”. The cytotoxicity in neurons result in the series on neurons is recorded as “did not exhibit cytotoxicity”. Besides, in the series on SOD1 [3], the “Western Blot” value is “Effect ○”. Moreover, the “PK study BA” value in series [4] is recorded as “(3.7%)”.
`COc1cc(/C=C/CO[C@H]2Cc3cc4ccc(=O)oc4cc3OC2(C)C)ccc1O` [PRG-A-02, (S,E)-7-((3-(4-hydroxy-3-methoxyphenyl)allyl)oxy)-8,8-dimethyl-7,8-dihydro-2H,6H-pyrano[3,2-g]chromen-2-one]: the Immuno-fluorscence result in the series on SOD1 [1] is reported as “Effect ○”. For the same compound, in the series on SOD1^G93A-Tg mice, the “effects in ALS model mice” value was “good effects” and the In vivo result is given as “Effect ○”. Also, the ELISA entry in series [2] was “Effect ○”. Besides, in the series with normal human fibroblasts, the “cytotoxic effect in normal fibroblasts” value is reported as “did not exhibit cytotoxicity” and the “Toxicity (MTT)” value is given as “No”. Moreover, the cytotoxicity in neurons entry in the series with neurons is “did not exhibit cytotoxicity”. Further, the “Western Blot” value in the series on SOD1 [3] is listed as “Effect ○”. The “PK study BA” value in series [4] is listed as “(0.3%)”.
